Source: PMC6694038, “Pharmacogenomic–pharmacokinetic study of selective estrogen-receptor modulators with intra-patient dose escalation in breast cancer” (Breast Cancer (Tokyo, Japan), 2019)
“Also recorded” adds a separate entry of the source. Where two headings read alike, the source gives them in different places.

What was measured:
[1] = Total activity: sum of plasma concentrations of each active metabolite adjusted by in vitro activity; assay type: in vivo, breast cancer patients
Method: Blood samples for PK analysis were obtained from patients who had good compliance with taking medications 2–4 h after taking anti-estrogens. […] The interday variability and intraday variability for all compounds are within 15%.

[2] = Hot flush grade (CTCAE v3.0) in the screening study; assay type: in vivo, breast cancer patients; details: screening study
Source text: (§1) We obtained data on compliance and the grade of hot flush as defined by the Common Terminology Criteria for Adverse Events v3.0.

[3] = Source text: Written informed consent was obtained from all the participants included in the study. The patient enrolment period for the screening study started on February 1, 2009 and ended on July 31, 2012.
as §1
The p value was not calculated if there were no events.

CN(C)CCOc1ccc(/C(=C(/CCCl)c2ccccc2)c2ccccc2)cc1 [TOR, toremifene]
Total activity on continuing the same dose ([1]; TOR 120 mg for up to 6 months, trend for decrease after 24 weeks): remained constant
Change of total activity after increasing the dose ([1]; TOR from 40 to 120 mg, p < 0.01): increased significantly; also recorded: increased by at least twofold
Hot flush grade 0, % of patients ([2]; TOR 40 mg): 57.4%
Hot flush grade 0, patients ([2]; TOR 40 mg): 35
Hot flush grade 1, % of patients ([2]; TOR 40 mg): 32.8%
Hot flush grade 1, patients ([2]; TOR 40 mg): 20
Hot flush grade 2, % of patients ([2]; TOR 40 mg): 9.8%
Hot flush grade 2, patients ([2]; TOR 40 mg): 6
Hot flush grade 3, % of patients ([2]; TOR 40 mg): 0.0%
Hot flush grade 3, patients ([2]; TOR 40 mg): 0
Hot flush grade 0, % of patients ([2]; TOR 120 mg): 88.9%
Hot flush grade 0, patients ([2]; TOR 120 mg): 24
Hot flush grade 1, % of patients ([2]; TOR 120 mg): 11.1%
Hot flush grade 1, patients ([2]; TOR 120 mg): 3
Hot flush grade 2, % of patients ([2]; TOR 120 mg): 0.0%
Hot flush grade 2, patients ([2]; TOR 120 mg): 0
Hot flush grade 3, % of patients ([2]; TOR 120 mg): 0.0%
Hot flush grade 3, patients ([2]; TOR 120 mg): 0
Grade and frequency of hot flushes compared with TAM 20 mg or TOR 40 mg ([2]; patients taking TOR 120 mg): lower grade and frequency of hot flushes
Cre elevation All grade, % of patients ([3]; TOR 40 mg): 36.4%
Cre elevation All grade, patients ([3]; TOR 40 mg): 4
Cre elevation ≧ G2, % of patients ([3]; TOR 40 mg): 0 (0) %
Cre elevation ≧ G2, patients ([3]; TOR 40 mg): 0 (0)
GOT elevation All grade, % of patients ([3]; TOR 40 mg): 0 (0) %
GOT elevation All grade, patients ([3]; TOR 40 mg): 0 (0)
GOT elevation ≧ G2, % of patients ([3]; TOR 40 mg): 0 (0) %
GOT elevation ≧ G2, patients ([3]; TOR 40 mg): 0 (0)
GPT elevation All grade, % of patients ([3]; TOR 40 mg): 0 (0) %
GPT elevation All grade, patients ([3]; TOR 40 mg): 0 (0)
GPT elevation ≧ G2, % of patients ([3]; TOR 40 mg): 0 (0) %
GPT elevation ≧ G2, patients ([3]; TOR 40 mg): 0 (0)
Hot flush G0, % of patients ([3]; TOR 40 mg): 100%
Hot flush G0, patients ([3]; TOR 40 mg): 14
Hot flush G1, % of patients ([3]; TOR 40 mg): 0 (0) %
Hot flush G1, patients ([3]; TOR 40 mg): 0 (0)
Hot flush G2, % of patients ([3]; TOR 40 mg): 0 (0) %
Hot flush G2, patients ([3]; TOR 40 mg): 0 (0)
Hyperglycemia All grade, % of patients ([3]; TOR 40 mg): 0 (0) %
Hyperglycemia All grade, patients ([3]; TOR 40 mg): 0 (0)
Hyperglycemia ≧ G2, % of patients ([3]; TOR 40 mg): 0 (0) %
Hyperglycemia ≧ G2, patients ([3]; TOR 40 mg): 0 (0)
LDH elevation All grade, % of patients ([3]; TOR 40 mg): 0 (0) %
LDH elevation All grade, patients ([3]; TOR 40 mg): 0 (0)
LDH elevation ≧ G2, % of patients ([3]; TOR 40 mg): 0 (0) %
LDH elevation ≧ G2, patients ([3]; TOR 40 mg): 0 (0)
LDL elevation All grade, % of patients ([3]; TOR 40 mg): 0 (0) %
LDL elevation All grade, patients ([3]; TOR 40 mg): 0 (0)
LDL elevation ≧ G2, % of patients ([3]; TOR 40 mg): 0 (0) %
LDL elevation ≧ G2, patients ([3]; TOR 40 mg): 0 (0)
Low PLT All grade, % of patients ([3]; TOR 40 mg): 0 (0) %
Low PLT All grade, patients ([3]; TOR 40 mg): 0 (0)
Low PLT ≧ G2, % of patients ([3]; TOR 40 mg): 0 (0) %
Low PLT ≧ G2, patients ([3]; TOR 40 mg): 0 (0)
Low WBC All grade, % of patients ([3]; TOR 40 mg): 11.1%
Low WBC All grade, patients ([3]; TOR 40 mg): 1
Low WBC ≧ G2, % of patients ([3]; TOR 40 mg): 11.1%
Low WBC ≧ G2, patients ([3]; TOR 40 mg): 1
T. Bil elevation All grade, % of patients ([3]; TOR 40 mg): 0 (0) %
T. Bil elevation All grade, patients ([3]; TOR 40 mg): 0 (0)
T. Bil elevation ≧ G2, % of patients ([3]; TOR 40 mg): 0 (0) %
T. Bil elevation ≧ G2, patients ([3]; TOR 40 mg): 0 (0)
TG elevation All grade, % of patients ([3]; TOR 40 mg): 12.5%
TG elevation All grade, patients ([3]; TOR 40 mg): 1
TG elevation ≧ G2, % of patients ([3]; TOR 40 mg): 0 (0) %
TG elevation ≧ G2, patients ([3]; TOR 40 mg): 0 (0)
Weight, max ([3]; TOR 40 mg): 73.4 kg
Weight, mean ([3]; TOR 40 mg): 53.2 kg
Weight, median ([3]; TOR 40 mg): 51.7 kg
Weight, min ([3]; TOR 40 mg): 45.0 kg
Cre elevation All grade, % of patients ([3]; TOR 120 mg (1)): 27.3%
Cre elevation All grade, patients ([3]; TOR 120 mg (1)): 3
Cre elevation ≧ G2, % of patients ([3]; TOR 120 mg (1)): 0 (0) %
Cre elevation ≧ G2, patients ([3]; TOR 120 mg (1)): 0 (0)
GOT elevation All grade, % of patients ([3]; TOR 120 mg (1)): 16.7%
GOT elevation All grade, patients ([3]; TOR 120 mg (1)): 2
GOT elevation ≧ G2, % of patients ([3]; TOR 120 mg (1)): 8.3%
GOT elevation ≧ G2, patients ([3]; TOR 120 mg (1)): 1
GPT elevation All grade, % of patients ([3]; TOR 120 mg (1)): 8.3%
GPT elevation All grade, patients ([3]; TOR 120 mg (1)): 1
GPT elevation ≧ G2, % of patients ([3]; TOR 120 mg (1)): 8.3%
GPT elevation ≧ G2, patients ([3]; TOR 120 mg (1)): 1
Hot flush G0, % of patients ([3]; TOR 120 mg (1)): 69.2%
Hot flush G0, patients ([3]; TOR 120 mg (1)): 9
Hot flush G1, % of patients ([3]; TOR 120 mg (1)): 15.4%
Hot flush G1, patients ([3]; TOR 120 mg (1)): 2
Hot flush G2, % of patients ([3]; TOR 120 mg (1)): 15.4%
Hot flush G2, patients ([3]; TOR 120 mg (1)): 2
